Assay results as given in patent US20210259960A1, “FORMULATION CONTAINING EMRICASAN” (The Doshisha, priority 2018, published 2021).

What was measured:
[1] = Solubility of emricasan with 0.5% of various surfactants at low pH, visually observed (Example 2); assay type: physicochemical; conditions: target 10 mmol/L; surfactant 0.5% (HCO-100, HCO-60, HCO-40, HCO-20, CO-35, MYS-40, poloxamer 407)
Procedure: In this example, a target dissolution concentration of emricasan was set to be 10 mmol/L in the same manner as Example 1. 28 mg of emricasan was accurately measured with an electronic balance (AUW220D, SHIMADZU) and transferred to a glass test tube. 100 μl of 99% ethanol was added thereto to dissolve emricasan. The solution thereof was sufficiently stirred with a vortex mixer in order to completely dissolve emricasan. The solution thereof was then added with polyoxyethylene hydrogenated castor oil 100 (HCO-100, NIKKOL), polyoxyethylene hydrogenated castor oil (HCO-60, NIKKOL), polyoxyethylene hydrogenated castor oil 40 (HCO-40, NIKKOL), polyoxyethylene hydrogenated castor oil 20 (HCO-20, NIKKOL), polyoxyethylene castor oil (CO-35:, NIKKOL), polyethylene glycol monostearate 40 (MYS-40, NIKKOL), and polyoxyethylene polyoxypropylene glycol 407 (poloxamer 407, NIKKOL), which are nonionic surfactants comprising a polyoxyethylene group, so that the final concentration was 0.5%, followed by sufficient stirring. Phosphate buffered saline (PBS) was added to this solution so that the total amount was 5 ml, and the solution was sufficiently stirred and solubility was visually observed.

[2] = system: immortalized cells in Fuchs' endothelial corneal dystrophy (iFECD); conditions: in vitro; cited from earlier work
[3] = Lyophilization test of emricasan ophthalmic solution, re-solubility by HPLC (Example 6); assay type: physicochemical; conditions: water added
Procedure: 7 mg of emricasan was accurately measured with an electronic balance (AUW220D, SHIMADZU) and transferred to a glass test tube. 140 μl of 99% ethanol was added thereto to dissolve emricasan. The solution thereof was sufficiently stirred with a vortex mixer in order to completely dissolve emricasan. The solution thereof was then added with polysorbate 80 (Tween 80, NIKKOL), which is a surfactant, so that the final concentration was 0.5%, followed by sufficient stirring. Ethanol was then distilled off by a nitrogen gas stream. D-mannitol (Wako Pure Chemical Industries, Ltd.) was dissolved into phosphate buffered saline (PBS) so that the final concentration was 4.5%, and the solution thereof was adjusted to pH 4.5 and added to the above solution so that the total amount was 7 ml. This solution was sufficiently stirred, and preserved in a −83° C. freezer for one day. After freezing, water was completely removed by a lyophilization machine (FDU-1200, TOKYO RIKAKIKAI CO, LTD) for 12 hours.
Water was then added to study the re-solubility. Further, after this sample was filtered with a 0.22 μmGV filter (Merck Millipore), the re-solubility of emricasan was measured by a high performance liquid chromatography (HPLC, Shimadzu Corporation). […]

[4] = Stability of emricasan in solution using HCO-60, HPLC (Example 3); assay type: physicochemical; conditions: 0.5% emricasan, 0.5% HCO-60
Procedure: Stability of when HCO-60 was used as a surfactant to dissolve emricasan to a final concentration of 0.5% was tested. 500 mg of emricasan was accurately measured with an electronic balance (AUW220D, SHIMADZU) and transferred to a glass test tube. 2 ml of 99% ethanol was added thereto to dissolve emricasan. The solution thereof was sufficiently stirred with a vortex mixer in order to completely dissolve emricasan. The solution thereof was then added with polyoxyethylene hydrogenated castor oil 60 (HCO-60, NIKKOL), which is a surfactant, so that the final concentration was 0.5%, followed by sufficient stirring. Ethanol was then distilled off by a nitrogen gas stream. In order to adjust osmotic pressure, concentrated glycerin was added to this solution so that the final concentration was 1%. Phosphate buffered saline (PBS) was adjusted to pH 8, and added so that the total amount was 100 ml. After the solution was sufficiently stirred, 20 ml was collected and filtered with a 0.22 μmGV filter (Merck Millipore). 5 ml of the first filtrate was discarded, and 15 ml of the subsequent filtrate was collected. […] In this case, the stability was evaluated over time by assuming the results of HPLC measurement immediately after preparation to be 100% and comparing said results with the results after 2 weeks and 4 weeks. […]

[5] = Stability of emricasan in an acidic region using Tween 80, HPLC (Example 5); assay type: physicochemical
Procedure: Stability of when Tween 80 was used as a surfactant to dissolve emricasan to a final concentration of 0.1% was tested.
45 mg of emricasan was accurately measured with an electronic balance (AUW220D, SHIMADZU) and transferred to a glass test tube. 0.9 ml of 99% ethanol was added thereto to dissolve emricasan. The solution thereof was sufficiently stirred with a vortex mixer in order to completely dissolve emricasan. The solution thereof was then added with polysorbate 80 (Tween 80, NIKKOL), which is a surfactant, so that the final concentration was 0.5%, followed by sufficient stirring. Ethanol was then distilled off by a nitrogen gas stream. In order to adjust osmotic pressure, concentrated glycerin was added to this solution so that the final concentration was 1%. Phosphate buffered saline (PBS) was adjusted to pH 5.5, and added so that the total amount was 45 ml. After the solution was sufficiently stirred, 20 ml was collected and filtered with a 0.22 μmGV filter (Merck Millipore). 5 ml of the first filtrate was discarded, and 15 ml of the subsequent filtrate was collected. 5 ml of this filtrate was placed in each glass test tube for 4° C., 25° C., and 37° C., shaded by a parafilm and an aluminum foil, and preserved under each temperature condition. The stability of this sample was studied by a high performance liquid chromatography (HPLC, Shimadzu Corporation). HPLC conditions were as follows: acetonitrile containing 0.05% trifluoroacetic acid and water were used at the ratio of 60:40 as a mobile phase, the temperature of VR-ODS column (4.6×150 mm, Shimadzu Corporation) was set to be 40° C., the flow rate was set to be 1.0 ml/min, the detection wavelength was set to be 254 nm, the injection volume was set to be 10 μl, and the detection time was set to be 10 minutes. In this case, the stability was studied over time by assuming the results of HPLC measurement immediately after preparation to be 100% and comparing said results with the results after 2 weeks and 4 weeks. Further, the condition of pH 4.5 was prepared and studied in the same method as described above.

[6] = Stability of emricasan in solution using Tween 80, HPLC (Example 4); assay type: physicochemical; conditions: 0.5% emricasan, 0.5% Tween 80
Procedure: Stability of when Tween 80 was used as a surfactant to dissolve emricasan to a final concentration of 0.5% was tested. 500 mg of emricasan was accurately measured with an electronic balance (AUW220D, SHIMADZU) and transferred to a glass test tube. 2 ml of 99% ethanol was added thereto to dissolve emricasan. The solution thereof was sufficiently stirred with a vortex mixer in order to completely dissolve emricasan. The solution thereof was then added with polysorbate 80 (Tween 80, NIKKOL), which is a surfactant, so that the final concentration was 0.5%, followed by sufficient stirring. Ethanol was then distilled off by a nitrogen gas stream. In order to adjust osmotic pressure, concentrated glycerin was added to this solution so that the final concentration was 1%. Phosphate buffered saline (PBS) was adjusted to pH 8, and added so that the total amount was 100 ml. After the solution was sufficiently stirred, 20 ml was collected and filtered with a 0.22 μmGV filter (Merck Millipore). 5 ml of the first filtrate was discarded, and 15 ml of the subsequent filtrate was collected. 5 ml of this filtrate was placed in each glass test tube for 4° C., 25° C., and 37° C., shaded by a parafilm and an aluminum foil, and preserved under each temperature condition. The stability of this sample was studied by a high performance liquid chromatography (HPLC, Shimadzu Corporation). […]

[7] = Solubility of emricasan with 2% surfactant at various pH, visually observed (Example 1); assay type: physicochemical
Procedure: 28 mg, which is the amount for the target concentration, of emricasan powder (Chemscene) was accurately measured with an electronic balance (AUW220D, SHIMADZU) and transferred to a glass test tube. 100 μl of 99% ethanol was added thereto to dissolve the emricasan powder. The solution thereof was sufficiently stirred with a vortex mixer in order to completely dissolve the emricasan powder. The solution thereof was then added with each of polysorbate 80 (Tween 80, NIKKOL), polyoxyethylene hydrogenated castor oil (HCO-60, NIKKOL), and polyethylene glycol monostearate (MYS-40, NIKKOL), which are nonionic surfactants comprising a polyoxyethylene group, so that the final concentration was 2%, followed by sufficient stirring. Phosphate buffered saline (PBS) was added to this solution so that the total amount was 5 ml, and the solution was sufficiently stirred and solubility was visually observed.

## C[C@H](NC(=O)C(=O)Nc1ccccc1C(C)(C)C)C(=O)N[C@@H](CC(=O)O)C(=O)COc1c(F)c(F)cc(F)c1F [emricasan]
[1]
  final pH at which dissolution was observed: ≥ 6.5
[2]
  concentration that exhibited pharmacological activity: 10 μmol/L
[3]; lyophilized (0.5% Tween 80, 4.5% D-mannitol, pH 4.5), after 0.22 μm filtration
  amount of emricasan dissolved relative to before lyophilization: about 88%
[3]; lyophilized sample
  re-solubility after addition of water (appearance): immediately dissolved but was pale white
[4]; 25° C. and 37° C.
  stability in solution: degradation of emricasan was observed
[4]; pH 6 to 8, 4° C., 4 weeks
  emricasan which was not degraded (residual vs immediately after preparation): no less than 90%
[5]; 0.1% emricasan, 0.5% Tween 80, pH 4.5, 25° C., 2 weeks
  emricasan which was not degraded: no less than 90%
[5]; 0.1% emricasan, 0.5% Tween 80, pH 4.5 and 5.5, 4° C., 4 weeks
  emricasan which was not degraded: no less than 90%
[5]; 0.1% emricasan, 0.5% Tween 80, pH 4.5 and pH 5.5, 37° C.
  stability in solution: degradation of emricasan was observed
[5]; 0.1% emricasan, 0.5% Tween 80, pH 5.5, 25° C., 2 weeks
  emricasan which was not degraded: less than 90%
[5]; 0.1% emricasan, 0.5% Tween 80, pH 5.5, 25° C., 4 weeks
  emricasan which was not degraded: no less than 50%
[5]; 0.5% Tween 80, pH 4.5 and pH 5.5
  solubility at final concentration of 0.1%: dissolved
[5]; pH on the acidic side
  amount of emricasan that dissolves: at least 0.1 % by weight
[6]; 25° C. and 37° C.
  stability in solution: degradation of emricasan was observed
[6]; pH 6 to 8, 4° C., 4 weeks
  emricasan which was not degraded (residual vs immediately after preparation): no less than 90%
[7]; HCO-60 2%, pH 5.0, target 10 mmol/L
  solubility (visually observed): a suspended state was maintained
[7]; Tween 80, HCO-60 or MYS-40 2%, pH 7, target 10 mmol/L
  solubility (visually observed): dissolution of all of the emricasan was observed
[7]; no surfactant, at a concentration for use in an eye drop
  solubility in saline, phosphate buffer, purified water: poorly soluble
[7]; no surfactant, pH 7.0 to 8.0, target 10 mmol/L
  solubility (visually observed): dissolution was not observed
[7]; target 10 mmol/L, nonionic polyoxyethylene surfactant 2%
  minimum pH value of a solvent in which dissolution was visually observed: 6.0
[7]; with surfactant 2%, pH 5.0, target 10 mmol/L
  solubility (visually observed): slightly dissolved
